Measured values taken from patent publication US10071989B2, “Substituted cinnamamide derivative, preparation method and use thereof” (TASLY PHARMACEUTICAL GROUP CO., LTD., priority 2011, dated 2018).
Entries after “also recorded” stand apart in the source; their conditions may differ. Structures can show the parent of a compound that is named as a salt. Where two headings read alike, the source gives them in different places. Marks after values point to notes of the source that are not given here.

Experiments:
Type in all cases: in vivo
C57BL/6 mice [1] = experiment: Depression model test of anti-blepharoptosis caused by reserpine (akinesia, blepharoptosis, shell temperature); conditions: for Blepharoptosis, “out-of-circle” ratio and shell temperature after reserpine (effect in words) / Change in the shell temperature (T ° C.) / Degree of eye-closure / responders at 10 mg/kg / Change in the shell temperature (ΔT ° C.): 10 mg/kg intragastric 7 days; for Blepharoptosis, “out-of-circle” ratio and shell temperature after reserpine (effect in words): compared with the solvent control group; for Change in the shell temperature (T ° C.) / Degree of eye-closure / responders at 10 mg/kg / Change in the shell temperature (ΔT ° C.): reserpine 4 mg/kg i.p.; for Change in the shell temperature (T ° C.) / Change in the shell temperature (ΔT ° C.): abdomen, two hours after reserpine; for Change in the shell temperature (T ° C.) / Degree of eye-closure / Change in the shell temperature (ΔT ° C.): ±SD; for Degree of eye-closure: score 0-4 one hour after reserpine; for responders at 10 mg/kg: Mus musculus, po, 1 h, one hour after reserpine, 7.5 cm circle, 15-second observation, read-out: “out-of-circle” ratio; for “out-of-circle” ratio after reserpine compared with I-1 (in words): compared with I-1, p<0.05
Experimental: 120 male C57BL/6 mice were randomly selected to observe the number of their autonomic activity. The mice was placed into the YLS-1A multi-functional mice autonomic activity recorder, and after 1 min of adaption, the activity of the mice was counted within a time period from the end of 1st min to 4th min. 96 mice with the number of autonomic activity between 70˜140 were screened out, divided randomly into 8 groups, and intragastrically administrated with the drug compounds at a dose listed in Table 3, one time daily for 7 days consecutively. The solvent control group was administrated with 2% Tween-80 aqueous solution in the same volume. Except the normal control group, 30 min after the last administration, each group was injected intraperitoneally with reserpine at a dose of 4 mg/kg. Next, akinesia, blepharoptosis and shell temperature were observed.
I Akinesia: one hour after intraperitoneal injection of reserpine, the mice were placed at the center of a circle with a diameter of 7.5 cm for a 15-second observation to calculate the “out-of-circle” ratio.
II Blepharoptosis: one hour after intraperitoneal injection of reserpine, the eye closure of mice was observed and scored by the following standard: eyelids open, 0; eyelids ¼ closed, 1; eyelids 2/4 closed, 2; eyelids ¾ closed, 3; eyelids closed completely, 4.
III Shell temperature: two hours after intraperitoneal injection of reserpine, the shell temperature of the abdomen of the mice was measured.
120 C57BL/6 mice were randomly selected to observe the number of their autonomic activity. The method was the same with that of Experiment 1. 100 mice with the number of autonomic activity between 70˜140 were screened out, divided randomly into 10 groups, and intragastrically administrated with the drug compounds at a dose listed in Table 4, one time daily for 7 days consecutively. The mice in the normal group and the solvent control group were administrated with 2% Tween-80 aqueous solution in the same volume. Except the normal control group, 30 min after the last administration, each group was injected intraperitoneally with reserpine at a dose of 4 mg/kg. Next, akinesia, blepharoptosis and shell temperature were observed. Observation method was the same with that of Experiment 1.

C57BL/6 mice [2] = experiment: Number of autonomic activity of mice (YLS-1A autonomic activity recorder); conditions: for Number of Autonomic activity (time): 10 mg/kg intragastric once daily, counted 30 min after administration at 6th day; for Effect on autonomic activity of mice (in words): 10 mg/kg intragastric, one week, compared with the solvent control group
Experimental: 110 mice were randomly selected to observe the number of their autonomic activity. The mice was placed into the YLS-1A multi-functional mice autonomic activity recorder, and after 1 min of adaption, the mice's activity was counted within a time period from the end of 1st min to 4th min. 96 mice with the number of autonomic activity between 70˜140 were screened out, divided randomly into 8 groups, and intragastrically administrated with the drug compounds at a dose listed in Table 1, one time daily for 7 days consecutively. The solvent control group was administrated with 2% Tween-80 aqueous solution in the same volume. All mice were placed into the autonomic activity recorder 30 min after administration at 6th day. After 1 min of adaption, the mice's activity was counted within a time period from the end of 1st min to 4th min.
(§1) 130 mice were randomly selected to observe the number of their autonomic activity. The method was the same with that of Experiment 1. 108 mice with the number of autonomic activity between 70˜140 were screened out, divided randomly into 9 groups, and intragastrically administrated with the drug compounds at a dose listed in Table 2, one time daily for 7 days consecutively. The solvent control group was administrated with 2% Tween-80 aqueous solution in the same volume. 30 min after administration at 6th day, the number of the autonomic activity of each mouse was observed. 30 min after administration at 7th day, the immobility time in tail suspension test was observed. The method was the same with that in Experiment 1.

C57BL/6 mice [3] = experiment: "Acquired despair" depression model of tail suspension test in mice; conditions: 10 mg/kg intragastric for 7 days; compared with the solvent control group
Experimental: 30 min after administration at 7th day, the mice was fixed on a sustainer with a rubberized cloth at 1 cm close to the end of the tail of mice, making the mice hanged upside down. The head of the mice was about 30 cm above the table and its sight was separated from the neighboring mouse with a plate. Usually, the mice might manage to struggle in hopes of overcoming the abnormal body position. […] The accumulated immobility time within 6 min of each mouse was observed, which was regarded as “despair time”.
as §1

C57BL/6 mice [4] = experiment: Forced swimming experiment in mice; conditions: 10 mg/kg intragastric once daily for 7 days; 30 min after last administration; end of 2nd min to 6th min
Experimental: After 1˜2 days of adaptive feed, 80 male C57BL/6 mice, aged 6˜8 weeks and weighing 18˜22 g, were placed into the YLS-1A multi-functional mice autonomic activity recorder. After 1 min of adaption, the activity of the mice was counted within a time period from the end of 1st min to 4th min. 60 mice with the number of autonomic activity between 70˜140 were screened out, divided randomly into 6 groups, and intragastrically administrated with the drug compounds at a dose listed in Table 5, one time daily for 7 days consecutively. The solvent control group was administrated with 2% Tween-80 aqueous solution in the same volume. After the administration at 6th day, the mice were placed into a cylindrical aquarium with a water depth of 10 cm and 25° C. to force the mice to swim. After 15 min, the mice were taken out, dried and returned to the cage. 24 hours later, 30 min after the last intragastrical administration, the mice were placed into a glass bottle with a diameter of 10 cm, a height of 30 cm and a water depth of 10 cm, and the temperature of the water in the bottle was at 25° C. The mice were separated with an opaque partition, so as not to influence each other. After 2 min of adaption, an accumulated immobility time from the end of 2nd min to 6th min was recorded.

mice = experiment: Anti-depression effect in the tested models (overall conclusion); conditions: in the tested model at the tested dose
From the text: Based on the aforesaid experiments, the following conclusion can be drawn: • 1.

[5] = Experiment 1, end of 1st min to 4th min

SMILES | Blepharoptosis, “out-of-circle” ratio and shell temperature after reserpine (effect in words) (C57BL/6 mice [1]) | Change in the shell temperature (T ° C.) (C57BL/6 mice [1]; Experiment 2) | Degree of eye-closure (C57BL/6 mice [1]; Experiment 2) | responders at 10 mg/kg (C57BL/6 mice [1]; Experiment 2) | Number of Autonomic activity (time) (C57BL/6 mice [2]; Experiment 2) | “out-of-circle” ratio after reserpine compared with I-1 (in words) (C57BL/6 mice [1]; 10 mg/kg) | Change in the shell temperature (ΔT ° C.) (C57BL/6 mice [1]; Experiment 1) | Degree of eye-closure (C57BL/6 mice [1]; Experiment 1) | responders at 10 mg/kg (C57BL/6 mice [1]; Experiment 1) | Number of Autonomic activity (time) (C57BL/6 mice [2]; [5]) | Effect on immobility time in tail suspension test (in words) (C57BL/6 mice [3]) | Immobility time in the forced swimming test in mice(s) (C57BL/6 mice [4]) | Blepharoptosis, “out-of-circle” ratio and shell temperature after reserpine (effect in words) (C57BL/6 mice [1]; hydrochloride) | Effect on autonomic activity of mice (in words) (C57BL/6 mice [2]) | Anti-depression effect compared with the pharmacologic effect of I-1 (in words) (mice) | Blepharoptosis, shell temperature and “out-of-circle” ratio compared with Compound I-1 (in words) (C57BL/6 mice [1]; 10 mg/kg, compared with I-1, p<0.05, p<0.01) | Improving akinesia, blepharoptosis and shell temperature: ranking among the tested compounds (in words) (C57BL/6 mice [1]; 10 mg/kg, within the experiment) | Degree of eye closure / blepharoptosis after reserpine compared with I-1 (in words) (C57BL/6 mice [1]; 10 mg/kg)
CN(C)C(=O)/C=C/c1cc2c(c(C(F)(F)F)c1)OCO2 [Compound I-8, N,N-dimethyl-5′-trifluoromethyl-3′,4′-methylenedioxy cinnamamide] | remarkably improve; also recorded: antagonizing the decrease of shell temperature, akinesia and improving the degree of eye closure | 27.60 ± 0.88 °C | 2.30 ± 1.64 | 40% | 84.00 ± 21.81 time |  |  |  |  |  |  |  |  |  |  |  |  | 
COc1cc(/C=C/C=C/C(=O)NCC(C)C)cc2c1OCO2 [Compound I-6, N-isobutyl-5-(5′-methoxy-3′,4′-methylenedioxyphenyl)pentadienamide] | improved significantly |  |  |  |  | increased markedly | 1.84 ± 0.22 °C | 2.08 ± 1.68 | 67% | 98.83 ± 17.56 time |  |  |  |  |  |  |  | 
CNCCC(Oc1ccc(C(F)(F)F)cc1)c1ccccc1 (stereo not shown) [fluoxetine hydrochloride, Fluoxetine hydrochloride, reference compound] |  | 29.20 ± 0.54 °C | 2.00 ± 1.33 | 50% | 102.0 ± 14.91 time |  | 1.89 ± 0.21 °C | 1.42 ± 1.38**Δ | 58% | 121.75 ± 24.14 time | reduce the immobility time in tail suspension test significantly | 98.96 ± 32.43 s | obviously increase mice “out-of-circle” ratio and shell temperature, and significantly reduce the degree of eye closure of the mice; also recorded: improve the “out-of-circle” ratio obviously, and significantly reduce the degree of eye closure and raise the shell temperature | had no effect |  |  |  | 
CC(C)CNC(=O)c1cc2c(c(C(F)(F)F)c1)OCO2 [Compound I-12, N-isobutyl-5-trifluoromethyl-3,4-methylenedioxy benzamide] | remarkably improve; also recorded: antagonizing the decrease of shell temperature, akinesia and improving the degree of eye closure | 30.65 ± 1.16 °C | 1.50 ± 1.18 | 70% | 93.20 ± 19.54 time |  |  |  |  |  | reduce the immobility time of the mice in tail suspension test significantly; also recorded: significantly shorten the immobility time |  |  | had no effect | increased to some degree | significantly improved effect | better effects | 
CC(C)CNC(=O)/C=C/c1cc(I)c2c(c1)OCO2 [Compound I-3, N-isobutyl-5′-iodo-3′,4′-methylenedioxy cinnamamide] | improved significantly |  |  |  |  | increased markedly | 1.72 ± 0.26 °C | 1.00 ± 1.13**^ΔΔ | 92% | 94.42 ± 23.97 time |  |  |  |  |  |  |  | reduced
CCN(CC)C(=O)/C=C/c1cc2c(c(C(F)(F)F)c1)OCO2 [Compound I-9, N,N-diethyl-5′-trifluoromethyl-3′,4′-methylenedioxy cinnamamide] | remarkably improve; also recorded: antagonizing the decrease of shell temperature, akinesia and improving the degree of eye closure | 28.70 ± 1.78 °C | 1.80 ± 1.23 | 30% | 83.60 ± 22.68 time |  |  |  |  |  | reduce the immobility time of the mice in tail suspension test significantly; also recorded: significantly shorten the immobility time |  |  | had no effect | increased to some degree |  |  | increased improvement
CC(C)CNC(=O)/C=C/c1cc2c(c([N+](=O)[O-])c1)OCO2 [Compound I-2, N-isobutyl-5′-nitro-3′,4′-methylenedioxy cinnamamide] | improved significantly |  |  |  |  | increased markedly | 1.60 ± 0.18 °C | 1.67 ± 1.30 | 83% | 102.00 ± 26.24 time |  |  |  |  |  |  |  | 
